Measurements reported in patent publication US9232796B2, “Herbicidal compositions comprising 4-amino-3-chloro-5-fluoro-6-(4-chloro-2-fluoro-3-methoxyphenyl) pyridine-2-carboxylic acid or a derivative thereof and acetyl-CoA carboxylase (ACCase) inhibitors” (DOW AGROSCIENCES LLC, priority 2012, dated 2016).

Legend:
[1] = test system: FIMMI; assay: Example II in-water applied, greenhouse, transplanted paddy rice weeds; assay type: in vivo, Fimbristylis miliacea (L.) Vahl
Procedure: Weed seeds or nutlets of the desired test plant species were planted in puddled soil (mud) prepared by mixing a shredded, non-sterilized mineral soil (50.5 percent silt, 25.5 percent clay, and 24 percent sand, with a pH of about 7.6 and an organic matter content of about 2.9 percent) and water at a 1:1 volumetric ratio. The prepared mud was dispensed in 365 mL aliquots into 16-ounce (oz.) non-perforated plastic pots with a surface area of 86.59 square centimeters (cm^2) leaving a headspace of 3 centimeters (cm) in each pot. Mud was allowed to dry overnight prior to planting or transplanting. Rice seeds were planted in Sun Gro MetroMix® 306 planting mixture, which typically has a pH of 6.0 to 6.8 and an organic matter content of about 30 percent, in plastic plug trays. Seedlings at the second or third leaf stage of growth were transplanted into 860 mL of mud contained in 32-oz. non-perforated plastic pots with a surface area of 86.59 cm^2 4 days prior to herbicide application. The paddy was created by filling the headspace of the pots with 2.5 to 3 cm of water. […] The plants were grown for 4-22 days in a greenhouse with an approximate 14 hr. photoperiod which was maintained at about 29° C. during the day and 26° C. during the night. Nutrients were added as Osmocote® (19:6:12, N:P:K+minor nutrients) at 2 g per 16-oz. pot and 4 g per 32-oz. pot. Water was added on a regular basis to maintain the paddy flood, and supplemental lighting was provided with overhead metal halide 1000-Watt lamps as necessary. The plants were employed for testing when they reached the first through fourth true leaf stage.
Treatments consisted of the acid or esters of 4-amino-3-chloro-5-fluoro-6-(4-chloro-2-fluoro-3-methoxy-phenyl)pyridine-2-carboxylic acid (compound A) each formulated as an SC (suspension concentrate) and various herbicidal components alone and in combination.
For formulated compounds, a measured amount was placed in an individual 100 or 200 mL glass vial and was dissolved in a volume of 1.25% (v/v) Agri-Dex® crop oil concentrate to obtain application solutions.
Applications were made by injecting with a pipetter appropriate amounts of the application solutions, individually and sequentially, into the aqueous layer of the paddy. Control plants were treated in the same manner with the solvent blank. Applications were made so that all treated plant material received the same concentrations of acetone and crop oil concentrate.
The treated plants and control plants were placed in a greenhouse as described above and water was added as needed to maintain a paddy flood. After approximately 3 weeks the condition of the test plants as compared with that of the untreated plants was determined visually and scored on a scale of 0 to 100 percent where 0 corresponds to no injury or growth inhibition and 100 corresponds to complete kill.
(§1) Colby's equation was used to determine the herbicidal effects expected from the mixtures (Colby, S. R. 1967. Calculation of the synergistic and antagonistic response of herbicide combinations. Weeds 15:20-22.).
The following equation was used to calculate the expected activity of mixtures containing two active ingredients, A and B: Expected=A+B−(A×B/100)

[2] = test system: IPOHE; assay: Example V (second) postemergence foliar-applied ternary mixtures, greenhouse, direct seeded rice weeds; assay type: in vivo, Ipomoea hederacea Jacq.
Description: All stock solutions and applications solutions were visually inspected for compound compatibility prior to application. Spray solutions were applied to the plant material with an overhead Mandel track sprayer equipped with a 8002E nozzles calibrated to deliver 187 L/ha over an application area of 0.503 m^2 at a spray height of 18 inches (46 cm) above average plant canopy height. Control plants were sprayed in the same manner with the solvent blank.
(§2) The treated plants and control plants were placed in a greenhouse as described above and watered by sub-irrigation to prevent wash-off of the test compounds. After approximately 3 weeks, the condition of the test plants as compared with that of the untreated plants was determined visually and scored on a scale of 0 to 100 percent where 0 corresponds to no injury or growth inhibition and 100 corresponds to complete kill.
as §1
(§3) The following equation was used to calculate the expected activity of mixtures containing three active ingredients, A, B, and C: Expected=A+B+C−((A×B+A×C+B×C)/100)+(A×B×C/10000)

[3] = test system: SCPMA; assay: Example VI in-water applied ternary mixtures, greenhouse, transplanted paddy rice weeds; assay type: in vivo
[4] = test system: LEFCH; assay: Example V (second) postemergence foliar-applied ternary mixtures, greenhouse, direct seeded rice weeds; assay type: in vivo, Leptochloa chinensis (L.) Nees
Procedure: as §2, §1, §3

COc1c(Cl)ccc(-c2nc(C(=O)O)c(Cl)c(N)c2F)c1F [Compound A Acid, 4-amino-3-chloro-6-(4-chloro-2-fluoro-3-methoxyphenyl)-5-fluoropyridine-2-carboxylic acid]
Visual Weed Control (%) - 21 DAA FIMMI Obs ([1]; 8.75 gae/ha): 20%
Visual Weed Control (%) - 21 DAA FIMMI Obs ([1]; 35 gae/ha): 85%

COc1c(Cl)ccc(-c2nc(C(=O)OCc3ccccc3)c(Cl)c(N)c2F)c1F [Compound A Benzyl Ester, benzyl ester of 4-amino-3-chloro-5-fluoro-6-(4-chloro-2-fluoro-3-methoxy-phenyl)pyridine-2-carboxylic acid]
Visual Weed Control (%) - 21 DAA IPOHE Obs ([2]; 8 gae/ha): 15%
Visual Weed Control (%) - 21 DAA IPOHE Obs ([2]; 16 gae/ha): 33%
Visual Weed Control (%) - 21 DAA SCPMA Obs ([3]; Table 68, 4 gae/ha): 0%
Visual Weed Control (%) - 21 DAA SCPMA Obs ([3]; Table 68, 8 gae/ha): 0%
Visual Weed Control (%) - 21 DAA SCPMA Obs ([3]; Table 68, 16 gae/ha): 0%
Visual Weed Control (%) - 22 DAA LEFCH Obs ([4]; 8 gae/ha): 28%
Visual Weed Control (%) - 21 DAA LEFCH Obs ([4]; 16 gae/ha): 25%

CCCCOC(=O)[C@@H](C)Oc1ccc(Oc2ccc(C#N)cc2F)cc1 [Cyhalofop-butyl, butyl(2R)-2-[4-(4-cyano-2-fluorophenoxy)phenoxy]propanoate, reference compound]
Visual Weed Control (%) - 21 DAA IPOHE Obs ([2]; Cyhalofop-butyl 35 gai/ha): 0%
Visual Weed Control (%) - 21 DAA SCPMA Obs ([3]; Table 68, cyhalofop-butyl 22.5 gai/ha): 0%
Visual Weed Control (%) - 21 DAA SCPMA Obs ([3]; Table 68, cyhalofop-butyl 45 gai/ha): 0%
Visual Weed Control (%) - 21 DAA LEFCH Obs ([4]; 35 gai/ha): 68%
Visual Weed Control (%) - 22 DAA LEFCH Obs ([4]; 35 gai/ha): 70%

C[C@@H](Oc1ccc(Oc2nc3ccc(Cl)cc3o2)cc1)C(=O)N(C)c1ccccc1F [Metamifop, (2R)-2-[4-[(6-chloro-2-benzoxazolyl)oxy]phenoxy]-N-(2-fluorophenyl)-N-methylpropanamide]
Visual Weed Control (%) - 21 DAA FIMMI Obs ([1]; 75 gai/ha): 0%
Visual Weed Control (%) - 21 DAA FIMMI Obs ([1]; 150 gai/ha): 0%
